According to US11304944B2, “MetAP2 inhibitors and methods of treating obesity” (SynDevRx, Inc., priority 2013, dated 2022):
Where a name gives a salt, the structure may show the parent alone.

Key:
[1] = test system: DIO C57Bl6 mice; assay: Efficacy of various compounds in DIO mouse model (body weight versus time); assay type: in vivo; conditions: 2 mg/kg q4d sc
Procedure: On study day 1 animals were randomized into groups so that the average weight of the mice in each group was 47 g. The mice were treated with either phosphate buffered saline (vehicle), or compounds as listed in Table 19 dissolved in vehicle (dorsal, subcutaneous administration).

[2] = test system: DIO Levin rats; assay: In vivo testing DIO Levin rats: weight changes, food consumption, insulin, leptin levels; conditions: for Final BW: after 68 days, 60% fat diet
Procedure: CKD-732 as referred to herein is the hemitartrate salt of the following structure:
Test articles were administered subcutaneously on an every 4 day (q4d) schedule in a diet-induced obesity (DIO) Levin-DS rat model. […] A dietary intervention (Standard Chow, Labdiet 5001; 3.4 kcal/g) was included to compare to the drug interventions. Upon arrival at three weeks of age, the male rats received ad libitum pellets of Harlan Diet TD.06414, 60% of calories from fat, 21% of calories from carbohydrate; 5.1 kcal/g. Prior to dosing the rats were randomized into groups of three animals with an average body weight of 595 gm. […] Compound 1 in the form of the hemitartrate and CKD-732 in the form of the hemitartrate were dissolved in ethanol prior to dilution with vehicle. All doses were administered at a volume of 5.0 ml/kg. […] On day 1, first dose, the rats were 14 weeks of age. Also on day 1, Group 2 was switched from the high fat diet to a standard chow diet; the remaining groups were maintained on a high fat diet for the duration of the study.
(§1) Animals were weighed every other day. Food consumption was measured weekly. On an approximately weekly basis throughout the study, blood samples were taken for assessment of serum chemistries including glucose and insulin. On Day 48 all rats underwent a 4 hour fasted Oral Glucose Tolerance Test (OGTT). Animals were dosed orally (per os, PO) at 8 mL/kg 25% glucose (2 g/kg). On day 68, gross pathology was performed to determine body composition.

[3] = test system: DIO Levin rats; assay: Oral Glucose Tolerance Test (OGTT) Day 48 and HOMA-ir in DIO Levin rats; assay type: in vivo; conditions: for Blood Glucose, Time 15 / Blood Glucose, Time 30 / Blood Glucose, Time 60 / Blood Glucose, Time 90 / Blood Glucose, Time 120: OGTT; for BW: at OGTT;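 as to Blood Glucose pre-OGTT: blood glucose in mg/dL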;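 as to Blood Glucose, Time 120: blood glucose in mg/dL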;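 as to Blood Glucose, Time 15: blood glucose in mg/dL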;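 as to Blood Glucose, Time 30: blood glucose in mg/dL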;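 as to Blood Glucose, Time 60: blood glucose in mg/dL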;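 as to Blood Glucose, Time 90: blood glucose in mg/dL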
Procedure: as §1

[4] = Plasma pharmacokinetics after single IV bolus in Sprague Dawley rats (LC/MS/MS, analyte Compound 1); assay type: in vivo; conditions: male, rat, Compound 1 30 mg/kg single IV bolus
Procedure: Blood samples were collected via saphenous vein puncture at 0, 0.25, 0.5, 1, 2, 4, 8, 24 and 48 hours.

## COC1C(OC(=O)N[C@H]2CC[C@H](N)CC2)CC[C@]2(CO2)C1[C@@]1(C)O[C@@H]1CC=C(C)C (stereo partly drawn) (as salt: tartrate) [Compound 1, Fumagill-6-yl [trans-(4-aminocyclohexyl)]carbamate]
other
  melting point: 180 to 185 °C

## poly[HPMA-co-MA-GFLG-NH-2-[(2-(2-aminoethoxy)ethoxy)ethyl]carbamoylfumagillol] [Compound bb]
[1]
  Group Avg. BW, Study Day 1: 47.0 g
  Group Avg. BW, Study Day 7: 43.6 g
  Group Avg. BW, Study Day 15: 43.9 g
  Group Avg. BW, Study Day 21: 42.2 g
  Group Avg. BW, Study Day 26: 42.5 g
[1]; day 26
  BW change vs. vehicle: −7.8%

## COC1C(OC(=O)N[C@H]2CC[C@H](N)CC2)CC[C@]2(CO2)C1[C@@]1(C)O[C@@H]1CC=C(C)C (stereo partly drawn) [Compound 1, Fumagill-6-yl [trans-(4-aminocyclohexyl)]carbamate]
[2]; 1 mg/kg Q4D
  lower body weight than vehicle: 3.9%
[2]; 1 mg/kg q4d sc
  Avg. Insulin Day 7: 1.83 ng/mL
  Avg. Insulin Day 15: 1.39 ng/mL
  Avg. Insulin Day 23: 1.20 ng/mL
  Avg. Insulin Day 48: 1.75 ng/mL
  Avg. Insulin Pre-dosing: 1.92 ng/mL
  Group Average Food Consumption Day 1-8: 128.6 g
  Group Average Food Consumption Day 9-15: 109.3 g
  Group Average Food Consumption Day 16-23: 121.1 g
  Group Average Food Consumption Day 24-30: 145.9 g
  Group Average Food Consumption Day 31-36: 144.6 g
  Group Average Food Consumption Day 37-43: 141.7 g
  Group Average Food Consumption Day 44-50: 122.4 g
  Group Average Food Consumption Day 51-57: 147.7 g
  Group Average Food Consumption Day 58-63: 140.7 g
  Group Average Food Consumption Day 63-68: 55.1 g
  Leptin Levels Day 29: 2.47
  Leptin Levels Pre-dose: 2.50
  Leptin Levels, Day 29, % Change from Baseline: −1.3%
[2]; 1.0 mg/kg q4d sc
  Final BW: 717.3 g
[2]; 3 mg/kg Q4D, end of the study
  lower body weight than the vehicle control: 8.9%
[2]; 3 mg/kg q4d sc
  Avg. Insulin Day 7: 1.35 ng/mL
  Avg. Insulin Day 15: 1.68 ng/mL
  Avg. Insulin Day 23: 1.27 ng/mL
  Avg. Insulin Day 48: 1.40 ng/mL
  Avg. Insulin Pre-dosing: 2.10 ng/mL
  Group Average Food Consumption Day 1-8: 123.6 g
  Group Average Food Consumption Day 9-15: 98.9 g
  Group Average Food Consumption Day 16-23: 110.1 g
  Group Average Food Consumption Day 24-30: 149.3 g
  Group Average Food Consumption Day 31-36: 138.8 g
  Group Average Food Consumption Day 37-43: 130.9 g
  Group Average Food Consumption Day 44-50: 94.7 g
  Group Average Food Consumption Day 51-57: 116.2 g
  Group Average Food Consumption Day 58-63: 124.9 g
  Group Average Food Consumption Day 63-68: 49.8 g
  Leptin Levels Day 29: 3.60
  Leptin Levels Pre-dose: 3.23
  Leptin Levels, Day 29, % Change from Baseline: 11.33%
[2]; 3.0 mg/kg q4d sc
  Final BW: 684.0 g
[2]; serum leptin day 29
  reduction in leptin levels: did not result in significant reductions in leptin levels
[3]; 1 mg/kg q4d sc
  Blood Glucose pre-OGTT: 124 mg/dL
  HOMA-ir (Insulin Sensitivity) 15 min: 42.7
  HOMA-ir (Insulin Sensitivity) 30 min: 21.1
  HOMA-ir (Insulin Sensitivity) Pre-dose: 15.4
  Blood Glucose, Time 15: 156 mg/dL
  Blood Glucose, Time 30: 142 mg/dL
  Blood Glucose, Time 60: 152 mg/dL
  Blood Glucose, Time 90: 151 mg/dL
  Blood Glucose, Time 120: 142 mg/dL
  BW: 686 g
[3]; 3 mg/kg q4d sc
  Blood Glucose pre-OGTT: 123 mg/dL
  HOMA-ir (Insulin Sensitivity) 15 min: 29.2
  HOMA-ir (Insulin Sensitivity) 30 min: 9.5
  HOMA-ir (Insulin Sensitivity) Pre-dose: 12.2
  Blood Glucose, Time 15: 175 mg/dL
  Blood Glucose, Time 30: 171 mg/dL
  Blood Glucose, Time 60: 149 mg/dL
  Blood Glucose, Time 90: 147 mg/dL
  Blood Glucose, Time 120: 129 mg/dL
  BW: 668 g
[4]
  Cmax: ~15 µM
  half-life: 10 to 15 min
